# Source: patent US6548550B1, “Pharmaceutical compositions containing N-palmitoylethanolamide and use thereof in the veterinary field” (Innovet Italia S.r.l., priority 2002, dated 2003)
# Read-outs that look alike come from different tables or passages of the source.
# How the values were obtained:
# [1] = tested on: eosinophilic skin condition in cats; settings: for SIGNS plaque-granuloma-miliary scabs % improved / SIGNS plaque-granuloma-miliary scabs % unchanged / SIGNS plaque-granuloma-miliary scabs % worsened / SYMPTOMS pruritis-erythema-alopecia % improved / SYMPTOMS pruritis-erythema-alopecia % unchanged / SYMPTOMS pruritis-erythema-alopecia % worsened: cats
# Method: Included in the investigation were 15 cats of European race with short hair, of which 9 were female and 6 were male, with ages of between 7 and 123 months. […] A numerical evaluation relating to the intensity and location of the signs and symptoms was assigned to each individual animal in accordance with the P.A.S.I. (psoriasis area severity index) “score” (Marks R. et al., 1989, Arch. Dermatol., 125:235-240). The improvements in the clinical signs and in the associated lesions were evaluated on the 15th and 30th days of treatment. The treatment consisted of a preparation in accordance with Example 3 of the pharmaceutical preparations given below, containing 120 mg of micronized N-palmitoylethanolamide. The active ingredient was administered in a proportion of 10 mg/kg/die for 30 days.
# [2] = Particle size analysis of micronized PEA (Mastersizer); assay type: physicochemical
# Method: The micronization of PEA and its co-micronization with excipients were performed with compressed-air turbine micronizing apparatus. This apparatus is known and is not therefore described in greater detail. The product obtained was subjected to analysis of the particles with Mastersizer, μ version apparatus from Malvern Instruments Co. UK.
Structure (SMILES),side effects compared with cortisones ([1]; in vivo),quantity % of particles <6μ ([2]; particle size <6μ),quantity % of particles <10μ ([2]; particle size <10μ),quantity % of particles >14μ ([2]; particle size >14μ),SIGNS plaque-granuloma-miliary scabs % improved ([1]; T15 (15th day of treatment)),SIGNS plaque-granuloma-miliary scabs % unchanged ([1]; T15 (15th day of treatment)),SIGNS plaque-granuloma-miliary scabs % worsened ([1]; T15 (15th day of treatment)),SYMPTOMS pruritis-erythema-alopecia % improved ([1]; T15 (15th day of treatment)),SYMPTOMS pruritis-erythema-alopecia % unchanged ([1]; T15 (15th day of treatment)),SYMPTOMS pruritis-erythema-alopecia % worsened ([1]; T15 (15th day of treatment)),SIGNS plaque-granuloma-miliary scabs % improved ([1]; T30 (30th day of treatment)),SIGNS plaque-granuloma-miliary scabs % unchanged ([1]; T30 (30th day of treatment)),SIGNS plaque-granuloma-miliary scabs % worsened ([1]; T30 (30th day of treatment)),SYMPTOMS pruritis-erythema-alopecia % improved ([1]; T30 (30th day of treatment)),SYMPTOMS pruritis-erythema-alopecia % unchanged ([1]; T30 (30th day of treatment)),SYMPTOMS pruritis-erythema-alopecia % worsened ([1]; T30 (30th day of treatment))
"CCCCCCCCCCCCCCCC(=O)NCCO [PEA, N-palmitoylethanolamide]",does not have the serious side effects typical of these drugs,80%,~96% approx.,traces,–,–,–,–,–,–,–,–,–,–,–,–
"CCCCCCCCCCCCCCCC(=O)NCCO [non-micronized PEA, N-palmitoylethanolamide]",–,–,–,–,14.6%,85.4%,0%,8.2%,91.8%,0%,51.4%,48.6%,0%,52%,48%,0%
